Test results from US8512970B2, “Rapid bioluminescence detection assay” (The Secretary of State for Health, priority 2009, dated 2013).
“Also recorded” adds a separate entry of the source. Counter-ions that a name gives are not always drawn.

How the values were obtained:
[1] = molecular target: T1, yeast AK (AK from Saccharomyces cerevisiae) (Saccharomyces cerevisiae, UniProt P07170); assay: Distinguishing reporter adenylate kinases from yeast adenylate kinase (FIG. 7B); assay type: biochemical
T1 construct: purchased Sigma

luciferase = luciferase (Photinus pyralis, UniProt P08659); assay: Effect of inhibitor on luciferase; assay type: biochemical
[2] = molecular target: adenylate kinase from S. acidocaldarius (Sulfolobus acidocaldarius, UniProt P35028); assay: Inhibition of reporter adenylate kinase by Ap5a, ATP detected with luciferin/luciferase
Protocol: (§1) The reporter adenylate kinases from S. acidocaldarius or T. maritima were purified as described previously. Rabbit myokinase (muscle adenylate kinase) was obtained from Sigma. 100 ng of each enzyme was incubated with the inhibitor at the concentrations shown in reaction buffer (15 mM MgAc, 10 mM tris, 1 mM EDTA pH 7.75) for 5 minutes. ADP was added to a final concentration of 70 μM and the reaction incubated before addition of luciferin and luciferase.

[3] = molecular target: T2, adenylate kinase from T. maritima (Thermotoga maritima, UniProt Q9X1I8); assay: as above
T2 sequence (Q9X1I8 1-220): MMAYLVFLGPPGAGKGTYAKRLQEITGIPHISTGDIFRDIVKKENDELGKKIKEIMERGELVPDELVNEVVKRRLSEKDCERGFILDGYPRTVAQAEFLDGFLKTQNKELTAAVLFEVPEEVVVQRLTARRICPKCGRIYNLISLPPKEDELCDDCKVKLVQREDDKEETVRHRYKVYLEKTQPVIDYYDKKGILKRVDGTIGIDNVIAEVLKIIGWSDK
Protocol: as §1

[4] = molecular target: T3, Rabbit myokinase (muscle adenylate kinase) (Oryctolagus cuniculus, UniProt P00569); assay: Inhibition of non-reporter (endogenous) tissue kinase by Ap5a, ATP detected with luciferin/luciferase
T3 sequence (P00569 1-194): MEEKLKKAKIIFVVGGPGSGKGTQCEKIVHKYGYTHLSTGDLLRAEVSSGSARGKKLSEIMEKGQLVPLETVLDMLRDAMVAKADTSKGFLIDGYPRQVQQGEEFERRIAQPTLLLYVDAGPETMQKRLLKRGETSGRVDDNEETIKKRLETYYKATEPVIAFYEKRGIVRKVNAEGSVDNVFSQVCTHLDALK
Protocol: as §1

T1 sequence (P07170 whole entry): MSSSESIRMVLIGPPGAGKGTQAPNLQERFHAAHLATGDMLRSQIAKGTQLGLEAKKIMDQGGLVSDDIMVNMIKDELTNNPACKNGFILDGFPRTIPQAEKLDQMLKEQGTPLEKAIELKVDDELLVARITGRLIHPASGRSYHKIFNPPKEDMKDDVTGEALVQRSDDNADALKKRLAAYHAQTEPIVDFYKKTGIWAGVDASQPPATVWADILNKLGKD
Sequence of luciferase (P08659 whole entry, species assumed): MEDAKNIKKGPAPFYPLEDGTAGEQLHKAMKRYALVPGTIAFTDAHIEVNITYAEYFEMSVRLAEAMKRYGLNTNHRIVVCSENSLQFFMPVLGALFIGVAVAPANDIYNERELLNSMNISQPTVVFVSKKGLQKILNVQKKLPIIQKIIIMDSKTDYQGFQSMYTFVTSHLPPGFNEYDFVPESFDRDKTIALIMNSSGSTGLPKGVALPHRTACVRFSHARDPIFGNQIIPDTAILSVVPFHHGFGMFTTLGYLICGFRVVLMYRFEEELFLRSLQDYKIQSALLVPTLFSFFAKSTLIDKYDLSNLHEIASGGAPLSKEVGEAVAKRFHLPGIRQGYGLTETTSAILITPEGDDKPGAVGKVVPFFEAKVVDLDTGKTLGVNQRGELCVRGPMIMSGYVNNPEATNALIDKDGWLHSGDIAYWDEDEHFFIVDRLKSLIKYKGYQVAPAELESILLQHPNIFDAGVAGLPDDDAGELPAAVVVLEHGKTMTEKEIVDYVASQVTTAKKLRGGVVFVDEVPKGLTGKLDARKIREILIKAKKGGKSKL
Sequence of adenylate kinase from S. acidocaldarius (P35028 whole entry): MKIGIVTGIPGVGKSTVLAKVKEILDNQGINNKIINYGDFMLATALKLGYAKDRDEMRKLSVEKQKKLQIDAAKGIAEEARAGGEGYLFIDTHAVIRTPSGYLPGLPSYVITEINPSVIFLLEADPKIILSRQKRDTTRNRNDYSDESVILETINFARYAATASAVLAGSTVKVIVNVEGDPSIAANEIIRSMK

Row | Molecule | distinguishing bacterial and archaeal reporter adenylate kinases from enzyme of fungal origin (yeast AK) [1] | effect on the activity of the luciferase (luciferase) | IC50 [2] [µM] | IC50 [3] [µM] | IC50 [4] [µM]
1 | Nc1ncnc2c1ncn2[C@@H]1O[C@H](COP(=O)(O)OP(=O)(O)OP(=O)(O)OP(=O)(O)OC[C@H]2O[C@@H](n3cnc4c(N)ncnc43)[C@H](O)[C@@H]2O)[C@@H](O)[C@H]1O [Ap4A, Diadenosine tetraphosphate] | do not allow for an assay to distinguish | – | – | – | –
2 | Nc1ncnc2c1ncn2[C@@H]1O[C@H](COP(=O)(O)OP(=O)(O)OP(=O)(O)OP(=O)(O)OP(=O)(O)OC[C@H]2O[C@@H](n3cnc4c(N)ncnc43)[C@H](O)[C@@H]2O)[C@@H](O)[C@H]1O [Ap5A, Diadenosine pentaphosphate pentasodium salt] | can still be used to distinguish; also recorded: discriminates reporter kinase from non-reporter kinase | does not have a detrimental effect | 10.4 | 4.3 | 0.06
3 | Diadenosine hexaphosphate [Ap6A] | do not allow for an assay to distinguish | – | – | – | –
